From patent US12421232B2, “Kinase inhibitor compounds and compositions and methods of use” (ICAHN SCHOOL OF MEDICINE AT MOUNT SINAI, priority 2018, dated 2025)
Where two headings read alike, the source gives them in different places.

Columns and labels:
Test in all cases: KINOMEscan Assay (DiscoverX)
Assay type in all cases: binding
Conditions in all cases: read-out: % DMSO Ctrl
[1] = target: T1, KIT(V559D,V654A) (Homo sapiens, UniProt P10721, V559D/V654A)
T1 construct: purchased DiscoverX

[2] = target: T2, KIT(V559D) (Homo sapiens, UniProt P10721, V559D)
T2 construct: purchased DiscoverX

[3] = target: T3, FLT3(D835V) (Homo sapiens, UniProt P36888, D835V)
T3 construct: purchased DiscoverX
T3 sequence (P36888 27-993 D835V): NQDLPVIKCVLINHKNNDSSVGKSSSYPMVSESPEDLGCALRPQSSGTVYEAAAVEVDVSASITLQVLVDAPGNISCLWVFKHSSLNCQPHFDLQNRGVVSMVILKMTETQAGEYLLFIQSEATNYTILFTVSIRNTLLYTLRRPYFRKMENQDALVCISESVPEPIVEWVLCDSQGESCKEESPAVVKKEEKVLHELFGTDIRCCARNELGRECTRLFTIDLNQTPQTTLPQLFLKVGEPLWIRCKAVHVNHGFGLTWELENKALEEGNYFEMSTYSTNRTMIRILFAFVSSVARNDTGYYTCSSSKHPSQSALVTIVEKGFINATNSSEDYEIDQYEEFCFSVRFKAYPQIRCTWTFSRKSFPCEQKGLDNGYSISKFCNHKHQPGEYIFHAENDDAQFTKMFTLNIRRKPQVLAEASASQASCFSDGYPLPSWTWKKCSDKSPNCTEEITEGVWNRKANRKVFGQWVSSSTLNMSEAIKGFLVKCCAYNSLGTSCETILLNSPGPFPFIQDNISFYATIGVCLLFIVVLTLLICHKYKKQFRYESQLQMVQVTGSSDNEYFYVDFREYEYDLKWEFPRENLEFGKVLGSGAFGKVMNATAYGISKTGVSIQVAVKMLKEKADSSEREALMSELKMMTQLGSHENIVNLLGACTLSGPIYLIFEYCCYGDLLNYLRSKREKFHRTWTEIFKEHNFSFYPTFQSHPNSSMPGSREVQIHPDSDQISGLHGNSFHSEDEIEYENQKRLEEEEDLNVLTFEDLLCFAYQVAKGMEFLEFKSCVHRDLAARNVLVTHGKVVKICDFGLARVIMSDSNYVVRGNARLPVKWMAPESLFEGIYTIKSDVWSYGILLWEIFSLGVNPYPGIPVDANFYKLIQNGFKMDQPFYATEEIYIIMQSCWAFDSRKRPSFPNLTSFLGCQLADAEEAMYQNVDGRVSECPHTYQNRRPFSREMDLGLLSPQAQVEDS

[4] = target: T4, KIT (Homo sapiens, UniProt P10721)
T4 construct: purchased DiscoverX

[5] = target: T5, DYRK2 (Homo sapiens, UniProt Q92630)
T5 construct: purchased DiscoverX
T5 sequence (Q92630 1-601): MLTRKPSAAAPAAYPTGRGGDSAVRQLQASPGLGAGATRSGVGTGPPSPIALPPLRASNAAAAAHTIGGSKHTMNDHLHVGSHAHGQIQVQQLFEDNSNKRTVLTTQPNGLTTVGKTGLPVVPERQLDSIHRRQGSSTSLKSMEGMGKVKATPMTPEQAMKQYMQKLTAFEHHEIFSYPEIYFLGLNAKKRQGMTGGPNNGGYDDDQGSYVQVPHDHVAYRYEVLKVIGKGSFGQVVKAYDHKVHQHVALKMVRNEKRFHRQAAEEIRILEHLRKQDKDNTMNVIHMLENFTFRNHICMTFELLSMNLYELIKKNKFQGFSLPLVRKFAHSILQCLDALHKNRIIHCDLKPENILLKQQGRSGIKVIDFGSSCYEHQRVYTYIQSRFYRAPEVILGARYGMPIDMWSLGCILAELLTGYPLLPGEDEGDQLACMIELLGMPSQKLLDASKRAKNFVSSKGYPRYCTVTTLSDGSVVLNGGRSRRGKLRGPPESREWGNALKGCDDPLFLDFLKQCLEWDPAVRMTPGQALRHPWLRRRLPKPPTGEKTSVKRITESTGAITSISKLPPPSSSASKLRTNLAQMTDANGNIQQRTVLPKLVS

[6] = target: T6, CSNK1A1 (Homo sapiens, UniProt P48729)
T6 construct: purchased DiscoverX

[7] = target: T7, CDK7 (Homo sapiens, UniProt P50613)
T7 construct: purchased DiscoverX
T7 sequence (P50613 whole entry): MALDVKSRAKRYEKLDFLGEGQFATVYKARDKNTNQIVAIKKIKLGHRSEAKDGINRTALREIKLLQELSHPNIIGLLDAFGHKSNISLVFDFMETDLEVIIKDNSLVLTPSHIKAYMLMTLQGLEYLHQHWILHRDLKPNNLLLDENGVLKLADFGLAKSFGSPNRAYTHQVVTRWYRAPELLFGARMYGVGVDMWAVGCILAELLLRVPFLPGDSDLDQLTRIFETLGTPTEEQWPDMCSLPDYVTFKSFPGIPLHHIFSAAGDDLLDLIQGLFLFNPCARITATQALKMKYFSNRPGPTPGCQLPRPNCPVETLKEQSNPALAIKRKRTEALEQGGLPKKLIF

T1 sequence (P10721 26-976 V559D/V654A): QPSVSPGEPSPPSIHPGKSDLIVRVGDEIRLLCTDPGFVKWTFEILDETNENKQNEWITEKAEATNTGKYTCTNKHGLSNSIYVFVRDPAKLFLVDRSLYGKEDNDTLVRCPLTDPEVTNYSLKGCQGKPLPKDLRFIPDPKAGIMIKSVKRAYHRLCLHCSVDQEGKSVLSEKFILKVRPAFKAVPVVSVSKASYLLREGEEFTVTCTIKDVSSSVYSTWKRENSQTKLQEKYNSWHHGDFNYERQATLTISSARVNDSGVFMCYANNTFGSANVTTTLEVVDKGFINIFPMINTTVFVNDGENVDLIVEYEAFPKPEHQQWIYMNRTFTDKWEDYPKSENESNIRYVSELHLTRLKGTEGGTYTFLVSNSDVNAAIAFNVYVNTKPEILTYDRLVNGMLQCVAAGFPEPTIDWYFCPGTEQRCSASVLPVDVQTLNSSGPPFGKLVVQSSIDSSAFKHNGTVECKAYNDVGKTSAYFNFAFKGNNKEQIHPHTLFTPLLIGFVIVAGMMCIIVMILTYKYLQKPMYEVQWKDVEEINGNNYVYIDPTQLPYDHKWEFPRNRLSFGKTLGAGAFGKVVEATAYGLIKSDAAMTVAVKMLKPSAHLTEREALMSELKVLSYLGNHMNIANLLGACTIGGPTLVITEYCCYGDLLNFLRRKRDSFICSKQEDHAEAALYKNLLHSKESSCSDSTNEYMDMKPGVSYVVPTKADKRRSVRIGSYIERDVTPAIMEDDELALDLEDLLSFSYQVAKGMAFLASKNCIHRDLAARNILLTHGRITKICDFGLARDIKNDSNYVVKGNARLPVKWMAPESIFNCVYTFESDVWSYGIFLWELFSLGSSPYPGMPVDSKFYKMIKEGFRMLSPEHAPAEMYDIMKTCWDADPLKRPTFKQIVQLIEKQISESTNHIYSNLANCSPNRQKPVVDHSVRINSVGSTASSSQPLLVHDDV
T4 sequence (P10721 26-976): as the sequence (P10721 26-976 V559D/V654A) above, with D534V, A629V counted along it
T2 sequence (P10721 26-976 V559D): as the sequence (P10721 26-976 V559D/V654A) above, with A629V counted along it
T6 sequence (P48729 whole entry): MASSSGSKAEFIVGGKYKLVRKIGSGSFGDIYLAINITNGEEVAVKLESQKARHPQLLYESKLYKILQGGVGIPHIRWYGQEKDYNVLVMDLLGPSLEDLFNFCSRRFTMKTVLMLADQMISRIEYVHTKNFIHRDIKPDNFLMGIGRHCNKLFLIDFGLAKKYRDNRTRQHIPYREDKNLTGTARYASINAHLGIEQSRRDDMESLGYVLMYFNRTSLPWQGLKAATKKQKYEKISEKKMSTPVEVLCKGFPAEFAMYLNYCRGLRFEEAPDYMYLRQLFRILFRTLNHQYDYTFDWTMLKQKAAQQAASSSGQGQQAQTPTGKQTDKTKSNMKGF

Structure (SMILES)	remaining binding at 10 µM ([1]; KIT(V559D,V654A) mutant, 10 μM)	remaining binding at 10 µM ([2]; KIT(V559D) mutant, 10 μM)	remaining binding at 10 µM ([3]; FLT3(D835V) mutant, 10 μM)	remaining binding at 10 µM ([4]; KIT, 10 μM)	remaining binding at 10 µM [1]	remaining binding at 10 µM [2]	remaining binding at 10 µM [5]	remaining binding at 10 µM [3]	remaining binding at 10 µM [6]	remaining binding at 10 µM [7]	remaining binding at 10 µM [4]	remaining binding at 10 µM ([6]; CSNK1A1, 10 μM)	remaining binding at 10 µM ([7]; CDK7, 10 μM)
COc1ccc2c(c1)[nH]c1c(C)nc(CO)cc12 [Compound 2-8, (1-Methyl-7-methoxy-9H-pyrido[3,4-b]indol-3-yl)methanol]	100%	82%	42%	98%	–	–	–	–	–	–	–	–	–
COc1ccc2c3ccnc(C)c3n(CCCc3noc(N)n3)c2c1 [Compound 20-13, 3-(3-(7-Methoxy-1-methyl-β-carbolin-9-yl)propyl)-5-amino-1,2,4-oxadiazole]	–	–	–	–	98%	100%	9.1%	2.6%	33%	51%	100%	–	–
C#CCn1c2cc(OC)ccc2c2ccnc(C)c21 [Compound 20-23a, 3-(7-Methoxy-1-methyl-β-carbolin-9-yl)-propan-1-yne]	–	–	2.5%	–	100%	90%	5.2%	–	–	–	83%	13%	0.8%
COc1ccc2c(c1)[nH]c1c(C)nccc12 [Harmine, reference compound]	–	–	–	–	–	–	3.2%	25%	5%	21%	–	–	–
